Results reported in PubChem BioAssay AID1224913.

Target: Proto-oncogene tyrosine-protein kinase Src (Homo sapiens) (UniProt P12931)
Experiment: cellular SRC kinase inhibition, late-stage follow-up, cell-based, Western blot (AID 1224913)
Settings: MDA-MB-231/MCF7 cells, pSRC Y416 Western blot; at 0.1 µM; stronger effect = higher value

Sequence of Proto-oncogene tyrosine-protein kinase Src (Homo sapiens) (P12931 whole entry, looked up): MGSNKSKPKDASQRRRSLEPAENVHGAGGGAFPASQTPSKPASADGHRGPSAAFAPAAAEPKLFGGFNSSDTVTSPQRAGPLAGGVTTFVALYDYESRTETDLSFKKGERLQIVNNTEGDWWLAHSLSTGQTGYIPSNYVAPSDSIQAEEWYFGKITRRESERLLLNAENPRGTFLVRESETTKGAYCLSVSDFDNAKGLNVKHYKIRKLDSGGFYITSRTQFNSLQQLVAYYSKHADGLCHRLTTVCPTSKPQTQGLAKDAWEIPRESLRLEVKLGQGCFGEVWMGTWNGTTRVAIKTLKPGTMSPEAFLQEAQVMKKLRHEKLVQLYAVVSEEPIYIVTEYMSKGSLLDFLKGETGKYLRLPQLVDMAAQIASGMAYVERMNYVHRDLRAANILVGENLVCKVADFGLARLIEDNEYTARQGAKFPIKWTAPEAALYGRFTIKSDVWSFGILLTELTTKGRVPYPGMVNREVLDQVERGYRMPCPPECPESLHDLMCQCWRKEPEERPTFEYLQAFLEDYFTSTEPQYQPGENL

## COc1cc(-c2nn(CCN3CCC(N(C)C)CC3)c3ncnc(N)c23)ccc1NC(=O)OC(C)(C)C
  inhibition: 100%
